Results published in PubChem BioAssay AID248 (DTP/NCI, 2004).
Several values for one entry are separate records, joined by “and”; a condition that tells them apart may be missing. Identical values can stand only once. Toxic doses and inconclusive results are not listed.

Test system: L1210 leukemia ip in BDF1 mice, survival T/C
Experiment: NCI In Vivo Anticancer Drug Screen. Data for tumor model L1210 Leukemia (intraperitoneal) in B6D2F1 (BDF1) mice
Details: endpoint: mean survival time, higher = longer survival
Summary of the method: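 Tumor was transplanted into mice, which were then dosed with test compound or vehicle alone. Survival was recorded for each group, and the treated figure was expressed relative to the control figure.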

[1] = dose: 200.0 mg/kg/injection, schedule: Q01DX001 (ip), vehicle: carboxymethylcellulose (CMC)
[2] = dose: 100.0 mg/kg/injection, schedule: Q01DX001 (ip), vehicle: saline
[3] = dose: 200.0 mg/kg/injection, schedule: Q01DX001 (ip), vehicle: saline
[4] = dose: 400.0 mg/kg/injection, schedule: Q01DX001 (ip), vehicle: saline
[5] = dose: 100.0 mg/kg/injection, schedule: Q01DX009 (ip), vehicle: Klucel (hydroxypropylcellulose) (HPC)
[6] = dose: 200.0 mg/kg/injection, schedule: Q01DX009 (ip), vehicle: Klucel (hydroxypropylcellulose) (HPC)

Nc1nncs1
T/C (dose: 3.75 mg/kg/injection, schedule: Q01DX015 (ip), vehicle: saline): 103 % of control
T/C (dose: 7.0 mg/kg/injection, schedule: Q03HX032 (ip), vehicle: saline): 107 % of control
T/C (dose: 7.5 mg/kg/injection, schedule: Q01DX015 (ip), vehicle: saline): 106 % of control
T/C (dose: 7.5 mg/kg/injection, schedule: Q01DX Z (ip), vehicle: carboxymethylcellulose (CMC)): 96 % of control
T/C (dose: 11.0 mg/kg/injection, schedule: Q03HX032 (ip), vehicle: saline): 119 % of control
T/C (dose: 12.5 mg/kg/injection, schedule: Q01DX009 (ip), vehicle: saline): 120 % of control
T/C (dose: 15.0 mg/kg/injection, schedule: Q01DX015 (ip), vehicle: saline): 109 % of control
T/C (dose: 15.0 mg/kg/injection, schedule: Q01DX Z (ip), vehicle: carboxymethylcellulose (CMC)): 114 % of control
T/C (dose: 16.0 mg/kg/injection, schedule: Q03HX032 (ip), vehicle: saline): 108 % of control
T/C (dose: 20.0 mg/kg/injection, schedule: Q01DX Z (ip), vehicle: carboxymethylcellulose (CMC)): 116 % of control
T/C (dose: 24.0 mg/kg/injection, schedule: Q03HX032 (ip), vehicle: saline): 124 % of control
T/C (dose: 25.0 mg/kg/injection, schedule: Q01DX009 (ip), vehicle: saline): 106 % of control
T/C (dose: 25.0 mg/kg/injection, schedule: Q01DX Z (ip), vehicle: carboxymethylcellulose (CMC)): 112 % of control
T/C (dose: 27.0 mg/kg/injection, schedule: Q01DX015 (ip), vehicle: saline): 123 % of control
T/C (dose: 32.0 mg/kg/injection, schedule: Q01DX009 (ip), vehicle: Klucel (hydroxypropylcellulose) (HPC)): 151 % of control
T/C (dose: 36.0 mg/kg/injection, schedule: Q03HX032 (ip), vehicle: saline): 156 % of control
T/C (dose: 50.0 mg/kg/injection, schedule: Q01DX009 (ip), vehicle: saline): 95 % of control
T/C (dose: 60.0 mg/kg/injection, schedule: Q01DX015 (ip), vehicle: saline): 151 % of control and 165 % of control and 166 % of control
T/C (dose: 64.0 mg/kg/injection, schedule: Q01DX009 (ip), vehicle: Klucel (hydroxypropylcellulose) (HPC)): 94 % of control and 112 % of control
T/C (dose: 90.0 mg/kg/injection, schedule: Q01DX015 (ip), vehicle: saline): 168 % of control
T/C (dose: 120.0 mg/kg/injection, schedule: Q01DX015 (ip), vehicle: saline): 171 % of control
T/C (dose: 128.0 mg/kg/injection, schedule: Q01DX009 (ip), vehicle: Klucel (hydroxypropylcellulose) (HPC)): 88 % of control and 90 % of control
T/C (dose: 135.0 mg/kg/injection, schedule: Q01DX015 (ip), vehicle: saline): 151 % of control
T/C (dose: 240.0 mg/kg/injection, schedule: Q01DX015 (ip), vehicle: saline): 116 % of control
T/C (dose: 270.0 mg/kg/injection, schedule: Q01DX001 (ip), vehicle: saline): 120 % of control
T/C (dose: 480.0 mg/kg/injection, schedule: Q01DX015 (ip), vehicle: saline): 107 % of control
T/C (dose: 500.0 mg/kg/injection, schedule: Q04DX003 (ip), vehicle: saline): 100 % of control
T/C (dose: 600.0 mg/kg/injection, schedule: Q01DX001 (ip), vehicle: saline): 124 % of control
T/C (dose: 1000.0 mg/kg/injection, schedule: Q04DX003 (ip), vehicle: saline): 163 % of control

C#CC(CC)(CC)NC(=O)NC(C)(C)C
T/C (dose: 100.0 mg/kg/injection, schedule: Q04DX002 (ip), vehicle: Klucel (hydroxypropylcellulose) (HPC)): 98 % of control
T/C (dose: 200.0 mg/kg/injection, schedule: Q04DX002 (ip), vehicle: Klucel (hydroxypropylcellulose) (HPC)): 102 % of control
T/C (dose: 400.0 mg/kg/injection, schedule: Q04DX002 (ip), vehicle: Klucel (hydroxypropylcellulose) (HPC)): 86 % of control

C[C@]12CC[C@@H]3c4ccc(OC(=O)Cc5ccc(N(CCCl)CCCl)cc5)cc4CC[C@H]3[C@@H]1CC[C@@H]2OC(=O)Cc1ccc(N(CCCl)CCCl)cc1
T/C (dose: 100.0 mg/kg/injection, schedule: Q01DX001 (sc), vehicle: steriod suspending solution): 97 % of control
T/C (dose: 200.0 mg/kg/injection, schedule: Q01DX001 (sc), vehicle: steriod suspending solution): 102 % of control
T/C (dose: 400.0 mg/kg/injection, schedule: Q01DX001 (sc), vehicle: steriod suspending solution): 102 % of control

O=C(O)C(O)C1CCCCC1 (stereo not given)
T/C (dose: 100.0 mg/kg/injection, schedule: Q01DX001 (ip), vehicle: carboxymethylcellulose (CMC)): 91 % of control
T/C [1]: 104 % of control
T/C (dose: 400.0 mg/kg/injection, schedule: Q01DX001 (ip), vehicle: carboxymethylcellulose (CMC)): 94 % of control

O=c1c(-c2ccccc2)c(S)sc(S)c1-c1ccccc1
T/C (dose: 100.0 mg/kg/injection, schedule: Q04DX002 (ip), vehicle: gum acacia): 93 % of control
T/C (dose: 200.0 mg/kg/injection, schedule: Q04DX002 (ip), vehicle: gum acacia): 104 % of control
T/C (dose: 400.0 mg/kg/injection, schedule: Q04DX002 (ip), vehicle: gum acacia): 93 % of control

CC(C)(C)c1cc(CN2CCOCC2)cc(C(C)(C)C)c1O
T/C (dose: 100.0 mg/kg/injection, schedule: Q01DX009 (ip), vehicle: saline with Tween-80): 96 % of control
T/C (dose: 200.0 mg/kg/injection, schedule: Q01DX009 (ip), vehicle: saline with Tween-80): 104 % of control
T/C (dose: 400.0 mg/kg/injection, schedule: Q01DX009 (ip), vehicle: saline with Tween-80): 96 % of control

O=C1NC(=O)C(c2ccccc2)(c2ccsc2)N1 (stereo not given)
T/C [2]: 95 % of control
T/C [3]: 90 % of control
T/C [4]: 95 % of control

CC1=CC2C(O)(CC(CO)=CC3C4C(C)(C)C4(O)C(O)C(C)C32O)C1=O (stereo not given)
T/C (dose: 50.0 mg/kg/injection, schedule: Q01DX001 (ip), vehicle: saline sonified): 112 % of control
T/C (dose: 100.0 mg/kg/injection, schedule: Q01DX001 (ip), vehicle: saline sonified): 101 % of control
T/C (dose: 200.0 mg/kg/injection, schedule: Q01DX001 (ip), vehicle: saline sonified): 91 % of control

COC(=O)c1ccccc1NN=Nc1ccccc1Cl
T/C [2]: 100 % of control
T/C (dose: 100.0 mg/kg/injection, schedule: Q04DX003 (ip), vehicle: saline): 105 % of control
T/C [3]: 90 % of control
T/C (dose: 200.0 mg/kg/injection, schedule: Q04DX003 (ip), vehicle: saline): 95 % of control
T/C [4]: 99 % of control
T/C (dose: 400.0 mg/kg/injection, schedule: Q04DX003 (ip), vehicle: saline): 94 % of control

OCC#CCO
T/C (dose: 5.0 mg/kg/injection, schedule: Q01DX001 (ip), vehicle: carboxymethylcellulose (CMC)): 95 % of control
T/C (dose: 10.0 mg/kg/injection, schedule: Q01DX001 (ip), vehicle: carboxymethylcellulose (CMC)): 104 % of control
T/C (dose: 12.0 mg/kg/injection, schedule: Q04DX003 (ip), vehicle: saline): 98 % of control
T/C (dose: 20.0 mg/kg/injection, schedule: Q01DX001 (ip), vehicle: carboxymethylcellulose (CMC)): 93 % of control
T/C (dose: 25.0 mg/kg/injection, schedule: Q04DX003 (ip), vehicle: saline): 104 % of control
T/C (dose: 40.0 mg/kg/injection, schedule: Q01DX001 (ip), vehicle: carboxymethylcellulose (CMC)): 106 % of control
T/C (dose: 50.0 mg/kg/injection, schedule: Q01DX009 (ip), vehicle: other): 105 % of control
T/C (dose: 50.0 mg/kg/injection, schedule: Q04DX003 (ip), vehicle: saline): 95 % of control
T/C (dose: 80.0 mg/kg/injection, schedule: Q01DX001 (ip), vehicle: carboxymethylcellulose (CMC)): 95 % of control

O=C(Nc1cccc(O)c1)c1ccc([N+](=O)[O-])cc1
T/C [5]: 93 % of control
T/C [6]: 90 % of control
T/C (dose: 400.0 mg/kg/injection, schedule: Q01DX009 (ip), vehicle: Klucel (hydroxypropylcellulose) (HPC)): 90 % of control

Nc1nc(N)nc(CCCCc2nc(N)nc(N)n2)n1
T/C [1]: 90 % of control

CN(C(=O)N(CCCl)N=O)C1CCCCC1
T/C (dose: 75.0 mg/kg/injection, schedule: Q01DX001 (ip), vehicle: saline): 109 % of control
T/C (dose: 150.0 mg/kg/injection, schedule: Q01DX001 (ip), vehicle: saline): 93 % of control

O=C1NC(=O)C2(CCc3ccccc32)N1 (stereo not given)
T/C (dose: 50.0 mg/kg/injection, schedule: Q01DX009 (ip), vehicle: Klucel (hydroxypropylcellulose) (HPC)): 105 % of control
T/C [5]: 100 % of control
T/C (dose: 100.0 mg/kg/injection, schedule: Q04DX003 (ip), vehicle: Klucel (hydroxypropylcellulose) (HPC)): 108 % of control
T/C [6]: 98 % of control
T/C (dose: 200.0 mg/kg/injection, schedule: Q04DX003 (ip), vehicle: Klucel (hydroxypropylcellulose) (HPC)): 100 % of control
T/C (dose: 400.0 mg/kg/injection, schedule: Q04DX003 (ip), vehicle: Klucel (hydroxypropylcellulose) (HPC)): 94 % of control

Cc1nc(N)[nH]c(=O)c1CCCNC(=O)CCl (tested in a mixture with another compound)
T/C (dose: 50.0 mg/kg/injection, schedule: Q01DX001 (ip), vehicle: Klucel (hydroxypropylcellulose) (HPC)): 114 % of control
T/C (dose: 100.0 mg/kg/injection, schedule: Q01DX001 (ip), vehicle: Klucel (hydroxypropylcellulose) (HPC)): 108 % of control
T/C (dose: 200.0 mg/kg/injection, schedule: Q01DX001 (ip), vehicle: Klucel (hydroxypropylcellulose) (HPC)): 100 % of control
